Measured values published in patent US7635696B2, “Isoxazoline-indole derivatives with an improved antipsychotic and anxiolytic activity” (Janssen Pharmaceutica N.V., priority 2004, dated 2009).

Key:
human 5HT transporter = target: T1, human 5HT transporter (Homo sapiens, UniProt P31645); experiment: Binding experiment for 5-HT transporter ([3H]Paroxetine); settings: transfected HEK cell membranes, [3H]Paroxetine
T1 construct: host or cells: HEK cells
Experimental: (§1) The interaction of the compounds of Formula (I) with dopamine-receptors, h5HT-transporter and h5HT1A receptor was assessed in in vitro radioligand binding experiments. In general, a low concentration of a radioligand with a high binding affinity for a particular receptor or transporter is incubated with a sample of a tissue preparation enriched in a particular receptor or transporter or with a preparation of cells expressing cloned human receptors in a buffered medium. During the incubation, the radioligand binds to the receptor or transporter. When equilibrium of binding is reached, the receptor bound radioactivity is separated from the non-bound radioactivity, and the receptor- or transporter-bound activity is counted. The interaction of the test compounds with the receptor is assessed in competition binding experiments. Various concentrations of the test compound are added to the incubation mixture containing the receptor- or transporter preparation and the radioligand. The test compound in proportion to its binding affinity and its concentration inhibits binding of the radioligand.
Frozen human 5HT transporter-transfected HEK cells (Perkin Elmer, Brussels) were thawed and briefly homogenised using an Ultra-Turrax T25 homogeniser prior to dilution to an appropriate protein concentration optimised for specific and non-specific binding. [^3H]Paroxetine (NEN, specific activity 20 Ci/mmol) was diluted in Tris-HCl assay buffer containing NaCl and KCl (50 mM, 120 mM and 5 mM, respectively; pH 7.4) at a concentration of 5 nmol/L. Prepared radioligand (25 μl) was then incubated (60 min, 25° C.) with membrane preparations (200 μl) and with 25 μl of either 10% DMSO control, Inipramine (10^−6 mol/L final concentration), or compound of interest. Membrane-bound activity was detected by filtration through a Packard Filtermate harvester onto Unifilterplates pre-soaked in 0.1% PEI, washing with ice-cold assay buffer (3×4 ml). Filters were dried prior to addition of scintillation fluid and then counting in a Topcount scintillation counter. % Specific bound and competition binding curves were calculated using S-Plus software (Insightful).

Human 5HT1A receptor = target: T2, Human 5HT1A receptor (Homo sapiens, UniProt P08908); experiment: Binding experiment for 5-HT1A receptor ([3H]8OHDPAT); settings: transfected L929 cell membranes, [3H]8OHDPAT
T2 construct: expressed in transfected cells; host or cells: L929 cells (stably transfected)
T2 sequence (P08908 1-422): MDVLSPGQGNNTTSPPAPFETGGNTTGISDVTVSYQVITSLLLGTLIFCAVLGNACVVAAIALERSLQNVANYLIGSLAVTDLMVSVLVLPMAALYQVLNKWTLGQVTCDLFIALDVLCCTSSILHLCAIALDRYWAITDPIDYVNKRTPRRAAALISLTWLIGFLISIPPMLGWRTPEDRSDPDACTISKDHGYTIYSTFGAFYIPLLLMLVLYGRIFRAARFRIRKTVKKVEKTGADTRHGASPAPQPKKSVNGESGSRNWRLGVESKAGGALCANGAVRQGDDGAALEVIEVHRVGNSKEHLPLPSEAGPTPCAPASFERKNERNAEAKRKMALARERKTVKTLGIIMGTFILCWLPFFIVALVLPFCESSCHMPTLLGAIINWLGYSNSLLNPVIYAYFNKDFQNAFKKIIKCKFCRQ
Experimental: as §1
Human 5HT1A receptor-transfected L929 cells were collected by scraping into ice-cold Tris-HCl buffer (50 mM, pH 7.4). The suspension was centrifuged (23 500×g, 10 min, 4° C.) and pellets stored at −70° C. until required. They were then thawed and briefly homogenised using an Ultra-Turrax T25 homogeniser prior to dilution to an appropriate protein concentration optimised for specific and non-specific binding. [^3H]80HDPAT (NEN, specific activity 127 Ci/mmol) was diluted in Tris-HCl assay buffer containing CaCl2 (50 mM and 4 mM, respectively; pH 7.7) at a concentration of 5 nmol/L. Prepared radioligand (50 μl) was then incubated (30 min, 37° C.) with membrane preparations from L929 cells stably-transfected with the h5HT1A gene construct (400 μl) and with 50 μl of either the 10% DMSO control, spiroxatrine (10^−6 mol/L final concentration), or compound of interest. Membrane-bound activity was detected by filtration through a Packard Filtermate harvester onto Unifilterplates, washing with ice-cold Tris-HCl buffer (3×4 ml), followed by drying. Scintillation fluid was added and membranes were counted in a Topcount scintillation counter. % Specific bound and competition binding curves were calculated using S-Plus software (Insightful).

[1] = target: T3, Human Dopamine D2L receptor (Homo sapiens, UniProt P14416); experiment: Binding experiment for dopamine D2 receptor ([3H]Spiperone); settings: D2L-transfected CHO cell membranes
T3 construct: expressed in transfected cells; host or cells: CHO cells
Experimental: as §1
Human Dopamine D2L receptor-transfected CHO cells were collected by scraping into ice-cold Tris-HCl buffer (50 mM, pH 7.4). The suspension was centrifuged (23 500×g, 10 min, 4° C.) and pellets stored at −70° C. until required. They were then thawed and briefly homogenised using an Ultra-Turrax T25 homogeniser prior to dilution to an appropriate protein concentration optimised for specific and non-specific binding. [^3H]Spiperone (NEN, specific activity ˜70 Ci/mmol) was diluted in Tris-HCl assay buffer containing NaCl, CaCl2, MgCl2, KCl (50, 120, 2, 1, and 5 mM respectively, adjusted to pH 7.7 with HCl) at a concentration of 2 nmol/L. Prepared radioligand (50 μl) was then incubated (30 min, 37° C.) with membrane preparations pre-diluted to an appropriate protein concentration (400 μl), and with 50 μl of either the 10% DMSO control, Butaclamol (10^−6 mol/L final concentration), or compound of interest. Membrane-bound activity was detected by filtration through a Packard Filtermate harvester onto Unifilterplates, washing with ice-cold Tris-HCl buffer (50 mM; pH8.0; 3×4 ml). Filters were allowed to dry before adding scintillation fluid and counting in a Topcount scintillation counter. % Specific bound and competition binding curves were calculated using S-Plus software (Insightful).

[2] = target: T4, Human Dopamine D3 receptor (Homo sapiens, UniProt P35462); experiment: Binding experiment for dopamine D3 receptor ([125I]Iodosulpride); settings: transfected CHO cell membranes
T4 construct: expressed in transfected cells; host or cells: CHO cells
Experimental: as §1
Human Dopamine D3 receptor-transfected CHO cells were collected by scraping into ice-cold Tris-HCl buffer (50 mM, pH 7.4). The suspension was centrifuged (23 500×g, 10 min, 4° C.) and pellets stored at −70° C. until required. They were then thawed and briefly homogenised using an Ultra-Turrax T25 homogeniser prior to dilution to an appropriate protein concentration optimised for specific and non-specific binding. [^125I]Iodosulpride (Amersham, specific activity 2000 Ci/mmol) was diluted in Tris-HCl assay buffer containing NaCl, CaCl2, MgCl2, KCl and BSA (50, 120, 2, 1, 5 mM, 0.1% respectively, adjusted to pH 7.7 with HCl) at a concentration of 2 nmol/L. Prepared radioligand (20 μl) was incubated (60 min, RT) and with 20 μl of either the 10% DMSO control, Risperidone (10^−6 mol/L final concentration), or compound of interest, then with membrane preparations (80 μl). Overnight incubation followed after addition of WGA-coated PVT SPA beads (250 μl; Amersham) and membrane-bound counts measured in a Wallac Microbeta. % Specific bound and competition binding curves were calculated using S-Plus software (Insightful).

T1 sequence (P31645 whole entry): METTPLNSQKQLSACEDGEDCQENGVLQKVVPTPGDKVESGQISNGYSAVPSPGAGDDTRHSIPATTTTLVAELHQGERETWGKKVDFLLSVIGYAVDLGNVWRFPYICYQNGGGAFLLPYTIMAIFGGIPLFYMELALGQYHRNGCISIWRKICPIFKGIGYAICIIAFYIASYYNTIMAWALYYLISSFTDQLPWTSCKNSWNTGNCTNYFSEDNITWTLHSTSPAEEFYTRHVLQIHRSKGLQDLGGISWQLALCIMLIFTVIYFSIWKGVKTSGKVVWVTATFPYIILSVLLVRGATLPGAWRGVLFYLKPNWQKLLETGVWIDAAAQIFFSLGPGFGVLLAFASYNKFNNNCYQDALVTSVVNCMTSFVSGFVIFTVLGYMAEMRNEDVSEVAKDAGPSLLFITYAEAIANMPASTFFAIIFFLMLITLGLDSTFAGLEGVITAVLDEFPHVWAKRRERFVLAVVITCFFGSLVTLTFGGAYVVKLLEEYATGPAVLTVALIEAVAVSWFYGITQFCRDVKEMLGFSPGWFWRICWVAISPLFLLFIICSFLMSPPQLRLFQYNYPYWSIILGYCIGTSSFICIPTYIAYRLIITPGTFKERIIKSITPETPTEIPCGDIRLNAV
T3 sequence (P14416 whole entry): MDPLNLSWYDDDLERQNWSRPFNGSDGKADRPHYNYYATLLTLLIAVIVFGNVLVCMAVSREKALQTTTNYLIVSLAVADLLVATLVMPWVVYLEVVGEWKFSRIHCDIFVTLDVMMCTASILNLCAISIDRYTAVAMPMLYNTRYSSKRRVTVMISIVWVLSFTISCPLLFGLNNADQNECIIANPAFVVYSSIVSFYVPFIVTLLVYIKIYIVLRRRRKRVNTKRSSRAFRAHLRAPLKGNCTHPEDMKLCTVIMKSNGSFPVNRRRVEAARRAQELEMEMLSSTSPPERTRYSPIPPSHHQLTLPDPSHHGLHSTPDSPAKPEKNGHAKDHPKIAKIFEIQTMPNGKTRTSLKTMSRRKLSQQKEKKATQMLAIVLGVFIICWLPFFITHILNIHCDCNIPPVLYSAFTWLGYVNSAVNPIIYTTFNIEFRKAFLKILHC
T4 sequence (P35462 whole entry): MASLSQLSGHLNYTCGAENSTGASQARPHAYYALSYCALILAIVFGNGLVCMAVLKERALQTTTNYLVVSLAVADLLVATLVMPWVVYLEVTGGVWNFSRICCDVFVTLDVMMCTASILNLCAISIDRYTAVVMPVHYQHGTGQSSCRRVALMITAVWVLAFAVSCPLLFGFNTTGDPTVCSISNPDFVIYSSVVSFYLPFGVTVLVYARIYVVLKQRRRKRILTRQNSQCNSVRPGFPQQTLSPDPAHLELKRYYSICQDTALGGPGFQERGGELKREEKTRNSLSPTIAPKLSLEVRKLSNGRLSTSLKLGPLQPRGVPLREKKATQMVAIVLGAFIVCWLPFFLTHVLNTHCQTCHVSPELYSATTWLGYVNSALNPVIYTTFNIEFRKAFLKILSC

Row | SMILES | pIC50 5HTT (human 5HT transporter) | pIC50 5-HT1A (Human 5HT1A receptor) | pIC50 D2 [1] | pIC50 D3 [2] | IC50 (human 5HT transporter; read-out: pIC50 5HTT (converted)) | IC50 (Human 5HT1A receptor; read-out: pIC50 5-HT1A (converted)) | IC50 ([1]; read-out: pIC50 D2 (converted)) | IC50 ([2]; read-out: pIC50 D3 (converted))
1 | COc1cc2c(cc1OC)C1=NOC(CN3CCC(c4c[nH]c5cccc(F)c45)CC3)C1CO2 (racemic) [Compound 17] | 7.6 | 8.2 | 6.9 | 6.3 | – | – | – | –
2 | COc1ccc2[nH]cc(C3=CCN(CC4ON=C5c6cc(OC)c(OC)cc6OCC54)CC3)c2c1 (racemic) [Compound 7] | 6.4 | 8.1 | <6 | <6 | – | – | – | –
3 | COc1cc2c(cc1OC)C1=NOC(CN3CC=C(c4c[nH]c5ccc([N+](=O)[O-])cc45)CC3)C1CO2 (racemic) [Compound 19] | 7.1 | 8.1 | 6.1 | 6.5 | – | – | – | –
4 | COc1cc2c(cc1OC)C1=NOC(CN3CCC(c4c[nH]c5ccc(F)cc45)CC3)C1CO2 (racemic) [Compound 2] | 7.4 | 8.8 | 7.2 | 7.2 | – | – | – | –
5 | COc1cc2c(cc1OC)C1=NOC(CN3CCC(c4c[nH]c5ccc(N)cc45)CC3)C1CO2 (racemic) [Compound 20] | 5.4 | 7.6 | 6.2 | <6 | – | – | – | –
6 | COc1cc2c(cc1OC)C1=NOC(CN3CC=C(c4c[nH]c5ccc(Br)cc45)CC3)C1CO2 (racemic) [Compound 10] | 6.7 | 8.3 | 6.3 | 6.5 | – | – | – | –
7 | COc1cc2c(cc1OC)C1=NOC(CN3CC=C(c4c[nH]c5cccc(F)c45)CC3)C1CO2 (single isomer, unassigned) [Compound 16] | 6.9 | 7.1 | 6.0 | 6.5 | – | – | – | –
8 | COc1cc2c(cc1OC)C1=NOC(CN3CC=C(c4c[nH]c5ccc(-c6ccccc6)cc45)CC3)C1CO2 (racemic) [Compound 22] | – | – | – | – | 2510 nM | 25.1 nM | 3.98 µM | 3.16 µM
9 | COc1cc2c(cc1OC)C1=NOC(CN3CC=C(c4c[nH]c5ccc(C#N)cc45)CC3)C1CO2 (racemic) [Compound 23] | 7.4 | 8.2 | 6.1 | 6.8 | – | – | – | –
10 | COc1cc2c(cc1OC)C1=NOC(CNCCCc3c[nH]c4ccc(F)cc34)C1CO2 (single isomer, unassigned) [Compound 5] | 7.2 | >9 | 6.6 | 7.0 | – | – | – | –
11 | Fc1ccc2[nH]cc(C3CCN(CC4ON=C5c6cc7c(cc6OCC54)OCCO7)CC3)c2c1 (single isomer, unassigned) [Compound 29] | 6.9 | 8.8 | 6.6 | 6.5 | – | – | – | –
12 | COc1cc2c(cc1OC)C1=NOC(CNCCCc3c[nH]c4ccc(F)cc34)C1CO2 (single isomer, unassigned) [Compound 4] | 7.8 | 8.6 | 6.1 | 6.7 | – | – | – | –
